Test results published in PubChem BioAssay AID1963985 (Molecular Pharmacology Branch, DTP, NCI, 2024).

System: 252836-082-R-J2-PDC tumor spheroids, viability
Test: Anticancer human tumor 252836-082-R-J2-PDC patient-derived head and neck squamous cell carcinoma cell line growth inhibition [PI3K]
Conditions: spheroids with HUVEC and MSC; for IC50: curve of first compound; for viability, T/C: stronger effect = lower value; active = viability on the fitted dose curve at most 10% of control; inactive = the rest
Method in brief: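 Three cell types, namely tumor cells, endothelial cells and mesenchymal stem cells, formed each spheroid. Combinations with four PI3K inhibitors were screened at clinically achievable concentrations decreasing by half-log, and spheroid viability was recorded.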

[1] = second compound 0.0316 µM, first compound 0.0316 µM
[2] = second compound 0.0316 µM, first compound 0.1 µM
[3] = second compound 0.1 µM, first compound 0.0316 µM
[4] = second compound 0.1 µM, first compound 0.1 µM
[5] = second compound 0.316 µM, first compound 0.0316 µM
[6] = second compound 0.316 µM, first compound 0.1 µM
[7] = second compound 1 µM, first compound 0.0316 µM
[8] = second compound 1 µM, first compound 0.1 µM
[9] = second compound 3.16 µM, first compound 0.0316 µM
[10] = second compound 3.16 µM, first compound 0.1 µM
[11] = second compound 10 µM, first compound 0.0316 µM
[12] = second compound 10 µM, first compound 0.1 µM
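Note: spheroids exposed to agents for seven days before readout.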
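Throughout, for viability, T/C: percent of vehicle DMSO control viability so 100% = untreated growth.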

CC(=O)c1c(C)c2cnc(Nc3ccc(N4CCNCC4)cn3)nc2n(C2CCCC2)c1=O + Cc1nc(NC(=O)N2CCCC2C(N)=O)sc1-c1ccnc(C(C)(C)C(F)(F)F)c1
> 100 nM: IC50 (second compound 0.0316 µM) | IC50 (second compound 0.1 µM) | IC50 (second compound 0.316 µM) | IC50 (second compound 1 µM)
< 0.316 nM: IC50 (second compound 3.16 µM) | IC50 (second compound 10 µM)
inactive: viability, T/C (second compound 0.0316 µM, first compound 0.000316 µM) 95.6% | viability, T/C (second compound 0.0316 µM, first compound 0.001 µM) 83.4% | viability, T/C (second compound 0.0316 µM, first compound 0.00316 µM) 91.6% | viability, T/C (second compound 0.0316 µM, first compound 0.01 µM) 79.5% | viability, T/C [1] 91.8% | viability, T/C [2] 77.7% | viability, T/C (second compound 0.1 µM, first compound 0.000316 µM) 71.9% | viability, T/C (second compound 0.1 µM, first compound 0.001 µM) 83.8% | viability, T/C (second compound 0.1 µM, first compound 0.00316 µM) 85.7% | viability, T/C (second compound 0.1 µM, first compound 0.01 µM) 76.2% | viability, T/C [3] 78.9% | viability, T/C [4] 73.7% | viability, T/C (second compound 0.316 µM, first compound 0.000316 µM) 71.7% | viability, T/C (second compound 0.316 µM, first compound 0.001 µM) 74.2% | viability, T/C (second compound 0.316 µM, first compound 0.00316 µM) 80.5% | viability, T/C (second compound 0.316 µM, first compound 0.01 µM) 65.2% | viability, T/C [5] 66.7% | viability, T/C [6] 81.5% | viability, T/C (second compound 1 µM, first compound 0.000316 µM) 62.3% | viability, T/C (second compound 1 µM, first compound 0.001 µM) 56.3% | viability, T/C (second compound 1 µM, first compound 0.00316 µM) 52.7% | viability, T/C (second compound 1 µM, first compound 0.01 µM) 65.6% | viability, T/C [7] 64.4% | viability, T/C [8] 57.2% | viability, T/C (second compound 3.16 µM, first compound 0.000316 µM) 46.1% | viability, T/C (second compound 3.16 µM, first compound 0.001 µM) 45.5% | viability, T/C (second compound 3.16 µM, first compound 0.00316 µM) 39.2% | viability, T/C (second compound 3.16 µM, first compound 0.01 µM) 43.9% | viability, T/C [9] 48.1% | viability, T/C [10] 41.1% | viability, T/C (second compound 10 µM, first compound 0.000316 µM) 27.9% | viability, T/C (second compound 10 µM, first compound 0.001 µM) 30.6% | viability, T/C (second compound 10 µM, first compound 0.00316 µM) 25.9% | viability, T/C (second compound 10 µM, first compound 0.01 µM) 35.7% | viability, T/C [11] 33.3% | viability, T/C [12] 38.2%

CC(C)NCC(C(=O)N1CCN(c2ncnc3c2C(C)CC3O)CC1)c1ccc(Cl)cc1 (centres undefined) + Cc1nc(NC(=O)N2CCCC2C(N)=O)sc1-c1ccnc(C(C)(C)C(F)(F)F)c1
inactive: viability, T/C [1] 87.3% | viability, T/C [2] 73.3% | viability, T/C (second compound 0.0316 µM, first compound 0.316 µM) 76.3% | viability, T/C (second compound 0.0316 µM, first compound 1 µM) 47.9% | viability, T/C (second compound 0.0316 µM, first compound 3.16 µM) 30.2% | viability, T/C (second compound 0.0316 µM, first compound 10 µM) 22.1% | viability, T/C [3] 87.8% | viability, T/C [4] 73.7% | viability, T/C (second compound 0.1 µM, first compound 0.316 µM) 64% | viability, T/C (second compound 0.1 µM, first compound 1 µM) 47.7% | viability, T/C (second compound 0.1 µM, first compound 3.16 µM) 29.5% | viability, T/C (second compound 0.1 µM, first compound 10 µM) 19.2% | viability, T/C [5] 70.3% | viability, T/C [6] 67.3% | viability, T/C (second compound 0.316 µM, first compound 0.316 µM) 68.9% | viability, T/C (second compound 0.316 µM, first compound 1 µM) 44.5% | viability, T/C (second compound 0.316 µM, first compound 3.16 µM) 31.7% | viability, T/C (second compound 0.316 µM, first compound 10 µM) 21% | viability, T/C [7] 55.6% | viability, T/C [8] 50.3% | viability, T/C (second compound 1 µM, first compound 0.316 µM) 60.1% | viability, T/C (second compound 1 µM, first compound 1 µM) 40.2% | viability, T/C (second compound 1 µM, first compound 3.16 µM) 29.5% | viability, T/C (second compound 1 µM, first compound 10 µM) 19.1% | viability, T/C [9] 41.3% | viability, T/C [10] 48.1% | viability, T/C (second compound 3.16 µM, first compound 0.316 µM) 43% | viability, T/C (second compound 3.16 µM, first compound 1 µM) 36.5% | viability, T/C (second compound 3.16 µM, first compound 3.16 µM) 25.8% | viability, T/C (second compound 3.16 µM, first compound 10 µM) 17.2% | viability, T/C [11] 32.8% | viability, T/C [12] 36.1% | viability, T/C (second compound 10 µM, first compound 0.316 µM) 27.8% | viability, T/C (second compound 10 µM, first compound 1 µM) 21.6% | viability, T/C (second compound 10 µM, first compound 3.16 µM) 19.8% | viability, T/C (second compound 10 µM, first compound 10 µM) 10.1%
< 31.6 nM: IC50 (second compound 3.16 µM) | IC50 (second compound 10 µM)
977 nM: IC50 (second compound 0.0316 µM)
461 nM: IC50 (second compound 1 µM)
784 nM: IC50 (second compound 0.1 µM)
834 nM: IC50 (second compound 0.316 µM)
